Source: ChEMBL document CHEMBL1135944, “Identification of potent and selective oxytocin antagonists. Part 1: indole and benzofuran derivatives” (Bioorg Med Chem Lett, 2002)

Tests used:
[1] = target: T1, Oxytocin receptor (Homo sapiens, UniProt P30559); test: Ability to displace [3H]oxytocin from human OT receptor (hOT)
T1 sequence (P30559 whole entry): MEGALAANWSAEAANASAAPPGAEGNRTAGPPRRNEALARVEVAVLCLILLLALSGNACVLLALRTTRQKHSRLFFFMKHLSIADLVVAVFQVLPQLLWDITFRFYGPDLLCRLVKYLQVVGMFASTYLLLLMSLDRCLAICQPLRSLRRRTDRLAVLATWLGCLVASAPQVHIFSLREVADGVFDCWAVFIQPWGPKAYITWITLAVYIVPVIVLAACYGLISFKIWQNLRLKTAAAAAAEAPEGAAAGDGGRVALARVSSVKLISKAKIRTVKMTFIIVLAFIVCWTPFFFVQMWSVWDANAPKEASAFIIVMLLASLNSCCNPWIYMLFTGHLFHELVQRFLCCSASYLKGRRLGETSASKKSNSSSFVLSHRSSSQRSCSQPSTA

[2] = The pharmacokinetic parameter, clearance was reported in dog after intravenous administration; format: ADME, organism-based, Canis lupus familiaris; settings: in vivo
[3] = Bioavailability in dog; format: ADME, organism-based, Canis lupus familiaris; settings: in vivo
[4] = target: T1, Oxytocin receptor; test: Compound was tested for its ability to displace [3H]oxytocin from human Oxytocin receptor

Compound	Ki [1] [nM]	clearance [2] [mL/min/kg]	bioavailability [3] [%]	Ki [4] [nM]
Cc1nc(-c2cccs2)ncc1C(=O)N1CCC(N2C(=O)OCc3ccccc32)CC1	158			
O=C(CN1C(=O)CNC1=O)NCc1cc2cc(C(=O)N3CCC(N4C(=O)OCc5ccccc54)CC3)ccc2o1	6.31	17	8	
O=C(c1ccc2ncsc2c1)N1CCC(N2C(=O)OCc3ccccc32)CC1	794			
CC(=O)NCCn1ccc2cc(C(=O)N3CCC(N4C(=O)OCc5ccccc54)CC3)ccc21	398			
O=C(Cc1cccnc1)NCc1cc2cc(C(=O)N3CCC(N4C(=O)OCc5ccccc54)CC3)ccc2o1	25.1	49		
CS(=O)(=O)N1CCC[C@H]1Cn1ccc2cc(C(=O)N3CCC(N4C(=O)OCc5ccccc54)CC3)ccc21				126
CC(=O)N1CCC(c2cc3cc(C(=O)N4CCC(N5C(=O)OCc6ccccc65)CC4)ccc3o2)CC1	63.1	6	49	
O=C(c1ccc2[nH]ccc2n1)N1CCC(N2C(=O)OCc3ccccc32)CC1	794			
O=C(c1ccc2cc[nH]c2c1)N1CCC(N2C(=O)OCc3ccccc32)CC1	200			
CC(=O)N1CCC[C@@H]1c1cc2cc(C(=O)N3CCC(N4C(=O)OCc5ccccc54)CC3)ccc2o1	25.1	31		
CC(=O)N1CCC[C@@H]1Cn1ccc2cc(C(=O)N3CCC(N4C(=O)OCc5ccccc54)CC3)ccc21	158			
CC(=O)NCc1cc2cc(C(=O)N3CCC(N4C(=O)OCc5ccccc54)CC3)ccc2o1	63.1	8		
CN(CCn1cnc2cc(C(=O)N3CCC(N4C(=O)OCc5ccccc54)CC3)ccc21)S(C)(=O)=O	398			
O=C(CN1CCCC1=O)NCc1cc2cc(C(=O)N3CCC(N4C(=O)OCc5ccccc54)CC3)ccc2o1	25.1	34		
O=C(c1ccc2ccoc2c1)N1CCC(N2C(=O)OCc3ccccc32)CC1	398			
CC(=O)N1CCCC(c2cc3cc(C(=O)N4CCC(N5C(=O)OCc6ccccc65)CC4)ccc3o2)C1 (centres undefined)	200			
Cc1c[nH]c2ccc(C(=O)N3CCC(N4C(=O)OCc5ccccc54)CC3)cc12	794			
CS(=O)(=O)N1CCC[C@@H]1Cn1ccc2cc(C(=O)N3CCC(N4C(=O)OCc5ccccc54)CC3)ccc21	20			
CN1CC(=O)N(CC(=O)NCc2cc3cc(C(=O)N4CCC(N5C(=O)OCc6ccccc65)CC4)ccc3o2)C1=O	3.16	20		
Cc1cc2cc(C(=O)N3CCC(N4C(=O)OCc5ccccc54)CC3)ccc2[nH]1	126			
CC1OC(=O)N(CC(=O)NCc2cc3cc(C(=O)N4CCC(N5C(=O)OCc6ccccc65)CC4)ccc3o2)C1=O (centres undefined)	25.1			

Compound	Ki [1] [nM]	clearance [2] [mL/min/kg]	bioavailability [3] [%]	Ki [4] [nM]
CS(=O)(=O)NCCn1ccc2cc(C(=O)N3CCC(N4C(=O)OCc5ccccc54)CC3)ccc21	316			
Cc1nc(-c2ccncc2)sc1C(=O)N1CCC(N2C(=O)OCc3ccccc32)CC1	126			
O=C(c1ccc2occc2c1)N1CCC(N2C(=O)OCc3ccccc32)CC1	251			
CS(=O)(=O)N1CCC(c2cc3cc(C(=O)N4CCC(N5C(=O)OCc6ccccc65)CC4)ccc3o2)CC1	79.4	9	69	
CS(=O)(=O)N1CCN(Cc2cc3cc(C(=O)N4CCC(N5C(=O)OCc6ccccc65)CC4)ccc3o2)CC1	63.1	7	100	
CS(=O)(=O)N1CCC[C@@H]1Cc1coc2cc(C(=O)N3CCC(N4C(=O)OCc5ccccc54)CC3)ccc12	200			
CC(=O)N1CCN(Cc2cc3cc(C(=O)N4CCC(N5C(=O)OCc6ccccc65)CC4)ccc3o2)CC1	79.4	11	44	
COc1cc(OC2CCN(C(C)=O)CC2)ccc1C(=O)N1CCC(N2C(=O)OCc3ccccc32)CC1	10			
CC(=O)NCC(=O)NCc1cc2cc(C(=O)N3CCC(N4C(=O)OCc5ccccc54)CC3)ccc2o1	15.8	18	16	
CN(CCn1ccc2cc(C(=O)N3CCC(N4C(=O)OCc5ccccc54)CC3)ccc21)S(C)(=O)=O	39.8			
CC(=O)N(C)CCn1ccc2cc(C(=O)N3CCC(N4C(=O)OCc5ccccc54)CC3)ccc21	63.1			
CC(=O)NCCc1cc2cc(C(=O)N3CCC(N4C(=O)OCc5ccccc54)CC3)ccc2o1	39.8	9	27	
Cc1c(C)n(C[C@H]2CCCN2S(C)(=O)=O)c2ccc(C(=O)N3CCC(N4C(=O)OCc5ccccc54)CC3)cc12	398			
CC1(C)NC(=O)N(CC(=O)NCc2cc3cc(C(=O)N4CCC(N5C(=O)OCc6ccccc65)CC4)ccc3o2)C1=O	15.8	20		
O=C(c1ccc2[nH]ccc2c1)N1CCC(N2C(=O)OCc3ccccc32)CC1	200			
CN1CCC(=O)N(CC(=O)NCc2cc3cc(C(=O)N4CCC(N5C(=O)OCc6ccccc65)CC4)ccc3o2)C1=O	3.98	27		
CN(CCCn1ccc2cc(C(=O)N3CCC(N4C(=O)OCc5ccccc54)CC3)ccc21)S(C)(=O)=O	158			
CN(Cc1cc2cc(C(=O)N3CCC(N4C(=O)OCc5ccccc54)CC3)ccc2o1)C(=O)CN1C(=O)CNC1=O	25.1	15	12	
Cc1cc(C(=O)N2CCC(N3C(=O)OCc4ccccc43)CC2)cc2ccn(C[C@H]3CCCN3S(C)(=O)=O)c12	10			
Cn1ccc2cc(C(=O)N3CCC(N4C(=O)OCc5ccccc54)CC3)ccc21	126			
